Tests used:
[1] = target: Ephrin type-A receptor 8 (Homo sapiens) (UniProt P29322); assay: Inhibition of EPHA8 at 10 uM
[2] = target: Receptor tyrosine-protein kinase erbB-2 (Homo sapiens) (UniProt P04626); assay: Inhibition of ERBB2 at 10 uM
[3] = target: Tyrosine-protein kinase Fgr (Homo sapiens) (UniProt P09769); assay: Inhibition of FGR at 10 uM
[4] = target: Insulin receptor-related protein (Homo sapiens) (UniProt P14616); assay: Inhibition of INSRR at 10 uM
[5] = target: Interleukin-1 receptor-associated kinase 4 (Homo sapiens) (UniProt Q9NWZ3); assay: Inhibition of IRAK4 at 10 uM
[6] = target: Mitogen-activated protein kinase kinase kinase 9 (Homo sapiens) (UniProt P80192); assay: Inhibition of MLK1 at 10 uM
[7] = target: Mitogen-activated protein kinase kinase kinase kinase 4 (Homo sapiens) (UniProt O95819); assay: Inhibition of HGK at 10 uM
[8] = target: Rhodopsin kinase GRK7 (Homo sapiens) (UniProt Q8WTQ7); assay: Inhibition of GRK7 at 10 uM
Rhodopsin kinase GRK7 (Homo sapiens), sequence (Q8WTQ7 whole entry): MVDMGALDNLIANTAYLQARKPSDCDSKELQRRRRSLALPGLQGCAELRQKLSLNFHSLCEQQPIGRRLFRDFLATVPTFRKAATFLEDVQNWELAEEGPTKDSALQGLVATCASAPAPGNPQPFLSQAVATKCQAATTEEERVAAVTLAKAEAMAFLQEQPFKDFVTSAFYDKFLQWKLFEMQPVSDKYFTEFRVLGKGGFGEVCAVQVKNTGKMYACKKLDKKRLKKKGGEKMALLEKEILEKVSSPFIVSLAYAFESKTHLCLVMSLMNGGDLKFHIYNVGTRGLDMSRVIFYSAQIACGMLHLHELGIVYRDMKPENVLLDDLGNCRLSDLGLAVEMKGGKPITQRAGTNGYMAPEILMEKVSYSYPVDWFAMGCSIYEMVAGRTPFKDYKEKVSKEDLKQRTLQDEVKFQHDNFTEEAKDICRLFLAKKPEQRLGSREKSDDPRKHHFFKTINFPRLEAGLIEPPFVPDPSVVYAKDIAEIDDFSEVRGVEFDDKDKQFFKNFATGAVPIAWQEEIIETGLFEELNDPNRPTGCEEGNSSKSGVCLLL

[9] = target: Glycogen synthase kinase-3 beta (Homo sapiens) (UniProt P49841); assay: Inhibition of GSK3-beta at 10 uM
[10] = target: Homeodomain-interacting protein kinase 2 (Homo sapiens) (UniProt Q9H2X6); assay: Inhibition of HIPK2 at 10 uM
[11] = target: Homeodomain-interacting protein kinase 4 (Homo sapiens) (UniProt Q8NE63); assay: Inhibition of HIPK4 at 10 uM
Homeodomain-interacting protein kinase 4 (Homo sapiens), sequence (Q8NE63 whole entry): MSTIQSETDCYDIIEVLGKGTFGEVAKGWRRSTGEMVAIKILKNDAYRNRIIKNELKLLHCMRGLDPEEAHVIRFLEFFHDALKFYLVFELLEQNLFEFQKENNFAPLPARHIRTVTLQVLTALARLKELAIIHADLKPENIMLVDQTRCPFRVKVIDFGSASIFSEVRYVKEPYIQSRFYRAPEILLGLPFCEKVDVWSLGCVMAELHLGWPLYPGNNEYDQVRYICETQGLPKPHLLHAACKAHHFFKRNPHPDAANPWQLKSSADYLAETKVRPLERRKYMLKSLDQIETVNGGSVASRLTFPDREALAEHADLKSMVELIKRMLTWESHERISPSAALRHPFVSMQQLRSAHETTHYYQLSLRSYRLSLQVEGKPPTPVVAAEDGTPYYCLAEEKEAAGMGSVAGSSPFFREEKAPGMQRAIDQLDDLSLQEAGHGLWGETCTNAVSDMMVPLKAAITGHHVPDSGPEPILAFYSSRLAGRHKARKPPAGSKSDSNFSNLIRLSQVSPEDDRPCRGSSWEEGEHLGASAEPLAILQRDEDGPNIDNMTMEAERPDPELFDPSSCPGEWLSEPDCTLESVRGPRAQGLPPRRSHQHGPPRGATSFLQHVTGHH

[12] = target: Mitogen-activated protein kinase 12 (Homo sapiens) (UniProt P53778); assay: Inhibition of p38-gamma at 10 uM
[13] = target: Mitogen-activated protein kinase 13 (Homo sapiens) (UniProt O15264); assay: Inhibition of p38delta at 10 uM
[14] = target: MAP kinase-activated protein kinase 5 (Homo sapiens) (UniProt Q8IW41); assay: Inhibition of PRAK at 10 uM
[15] = target: Macrophage-stimulating protein receptor (Homo sapiens) (UniProt Q04912); assay: Inhibition of RON at 10 uM
[16] = target: Muscle, skeletal receptor tyrosine-protein kinase (Homo sapiens) (UniProt O15146); assay: Inhibition of MUSK at 10 uM
[17] = target: Serine/threonine-protein kinase Nek7 (Homo sapiens) (UniProt Q8TDX7); assay: Inhibition of NEK7 at 10 uM
[18] = target: BDNF/NT-3 growth factors receptor (Homo sapiens) (UniProt Q16620); assay: Inhibition of TRKB at 10 uM
[19] = tested on: Platelet-derived growth factor receptor alpha (Homo sapiens), P16234 [V561D]; assay: Inhibition of PDGFRalpha V561D (mutant) at 10 uM
[20] = target: Phosphorylase b kinase gamma catalytic chain, liver/testis isoform (Homo sapiens) (UniProt P15735); assay: Inhibition of PHKgamma2 at 10 uM
[21] = target: Protein kinase C theta type (Homo sapiens) (UniProt Q04759); assay: Inhibition of PKCtheta at 10 uM
Protein kinase C theta type (Homo sapiens), sequence (Q04759 whole entry, looked up): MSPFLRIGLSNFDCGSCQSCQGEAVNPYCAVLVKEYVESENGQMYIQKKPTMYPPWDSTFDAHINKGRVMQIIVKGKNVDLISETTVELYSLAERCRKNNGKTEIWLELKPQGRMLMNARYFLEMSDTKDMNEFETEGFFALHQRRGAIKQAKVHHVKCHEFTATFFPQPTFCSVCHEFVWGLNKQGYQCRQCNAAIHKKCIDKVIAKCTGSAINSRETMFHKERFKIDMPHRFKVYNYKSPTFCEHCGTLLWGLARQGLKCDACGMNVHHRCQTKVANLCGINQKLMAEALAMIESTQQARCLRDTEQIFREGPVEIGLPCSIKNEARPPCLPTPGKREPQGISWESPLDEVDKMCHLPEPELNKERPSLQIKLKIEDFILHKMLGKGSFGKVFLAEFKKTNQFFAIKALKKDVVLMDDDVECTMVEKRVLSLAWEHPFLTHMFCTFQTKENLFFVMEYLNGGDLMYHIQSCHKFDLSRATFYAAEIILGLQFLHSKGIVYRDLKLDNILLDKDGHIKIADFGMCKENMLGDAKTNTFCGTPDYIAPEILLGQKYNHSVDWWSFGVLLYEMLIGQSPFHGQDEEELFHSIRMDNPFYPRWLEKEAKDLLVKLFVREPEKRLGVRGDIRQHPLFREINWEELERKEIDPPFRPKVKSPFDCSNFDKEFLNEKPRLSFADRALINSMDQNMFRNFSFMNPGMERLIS

[22] = target: Protein kinase C zeta type (Homo sapiens) (UniProt Q05513); assay: Inhibition of PKCzeta at 10 uM
[23] = target: Serine/threonine-protein kinase D2 (Homo sapiens) (UniProt Q9BZL6); assay: Inhibition of PKD2 at 10 uM
[24] = target: Proto-oncogene tyrosine-protein kinase receptor Ret (Homo sapiens) (UniProt P07949); assay: Inhibition of RET at 10 uM
[25] = target: Ribosomal protein S6 kinase alpha-3 (Homo sapiens) (UniProt P51812); assay: Inhibition of RSK2 at 10 uM
Ribosomal protein S6 kinase alpha-3 (Homo sapiens), sequence (P51812 whole entry): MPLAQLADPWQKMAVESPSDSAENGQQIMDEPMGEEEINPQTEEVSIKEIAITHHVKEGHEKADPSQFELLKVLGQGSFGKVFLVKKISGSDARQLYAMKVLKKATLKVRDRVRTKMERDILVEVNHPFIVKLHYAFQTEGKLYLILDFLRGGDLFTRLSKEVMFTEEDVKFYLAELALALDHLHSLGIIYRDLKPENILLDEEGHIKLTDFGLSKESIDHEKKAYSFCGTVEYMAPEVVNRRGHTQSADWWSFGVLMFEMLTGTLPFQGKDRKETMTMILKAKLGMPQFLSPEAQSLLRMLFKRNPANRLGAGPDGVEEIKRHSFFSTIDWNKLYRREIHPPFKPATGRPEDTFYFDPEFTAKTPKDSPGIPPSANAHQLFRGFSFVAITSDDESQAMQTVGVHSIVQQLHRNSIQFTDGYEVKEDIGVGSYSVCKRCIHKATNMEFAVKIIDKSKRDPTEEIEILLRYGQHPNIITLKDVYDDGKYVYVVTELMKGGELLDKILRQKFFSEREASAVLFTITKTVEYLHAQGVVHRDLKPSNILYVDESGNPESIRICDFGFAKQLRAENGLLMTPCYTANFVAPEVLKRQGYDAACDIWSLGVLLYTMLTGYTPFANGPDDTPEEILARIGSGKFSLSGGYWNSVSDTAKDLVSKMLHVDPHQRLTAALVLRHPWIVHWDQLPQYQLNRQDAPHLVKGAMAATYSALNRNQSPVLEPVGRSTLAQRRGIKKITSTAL

[26] = target: Ribosomal protein S6 kinase beta-1 (Homo sapiens) (UniProt P23443); assay: Inhibition of p70S6K at 10 uM
[27] = target: Serine/threonine-protein kinase Sgk1 (Homo sapiens) (UniProt O00141); assay: Inhibition of SGK1 at 10 uM
[28] = target: Serine/threonine-protein kinase SIK2 (Homo sapiens) (UniProt Q9H0K1); assay: Inhibition of SNF1LK2 at 10 uM
Serine/threonine-protein kinase SIK2 (Homo sapiens), sequence (Q9H0K1 whole entry, looked up): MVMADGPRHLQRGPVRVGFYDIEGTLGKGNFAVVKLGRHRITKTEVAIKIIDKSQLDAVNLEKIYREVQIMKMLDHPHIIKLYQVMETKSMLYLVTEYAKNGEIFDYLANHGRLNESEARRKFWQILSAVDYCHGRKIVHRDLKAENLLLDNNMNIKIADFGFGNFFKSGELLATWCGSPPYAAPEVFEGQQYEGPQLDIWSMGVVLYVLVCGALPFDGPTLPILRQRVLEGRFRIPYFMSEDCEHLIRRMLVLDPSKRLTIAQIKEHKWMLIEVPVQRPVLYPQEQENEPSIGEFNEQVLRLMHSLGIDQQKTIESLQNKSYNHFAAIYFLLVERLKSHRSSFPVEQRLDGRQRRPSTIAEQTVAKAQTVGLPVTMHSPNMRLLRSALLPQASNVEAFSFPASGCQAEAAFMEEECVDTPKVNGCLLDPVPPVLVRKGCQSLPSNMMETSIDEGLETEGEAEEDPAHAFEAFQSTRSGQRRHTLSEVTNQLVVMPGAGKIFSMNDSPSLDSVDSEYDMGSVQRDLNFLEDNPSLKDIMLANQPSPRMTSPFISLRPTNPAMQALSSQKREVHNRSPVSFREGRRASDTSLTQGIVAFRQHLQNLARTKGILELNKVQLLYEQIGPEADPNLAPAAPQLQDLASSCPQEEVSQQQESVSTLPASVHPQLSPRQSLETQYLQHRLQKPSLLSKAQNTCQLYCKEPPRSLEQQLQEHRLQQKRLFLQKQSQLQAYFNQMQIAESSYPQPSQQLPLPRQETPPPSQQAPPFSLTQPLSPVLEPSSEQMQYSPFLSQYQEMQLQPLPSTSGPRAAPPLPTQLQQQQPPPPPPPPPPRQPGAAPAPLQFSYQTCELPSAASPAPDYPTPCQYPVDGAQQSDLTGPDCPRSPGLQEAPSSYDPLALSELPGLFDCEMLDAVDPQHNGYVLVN

[29] = target: Proto-oncogene tyrosine-protein kinase Src (Homo sapiens) (UniProt P12931); assay: Inhibition of SRC at 10 uM
[30] = target: SRSF protein kinase 1 (Homo sapiens) (UniProt Q96SB4); assay: Inhibition of SRPK1 at 10 uM
[31] = target: Serine/threonine-protein kinase 3 (Homo sapiens) (UniProt Q13188); assay: Inhibition of MST2 at 10 uM
[32] = target: Angiopoietin-1 receptor (Homo sapiens) (UniProt Q02763); assay: Inhibition of Tie2 at 10 uM
[33] = target: Tyrosine-protein kinase ZAP-70 (Homo sapiens) (UniProt P43403); assay: Inhibition of ZAP70 at 10 uM
[34] = Clearance in po dosed Sprague-Dawley rat; assay type: ADME, organism-based; settings: in vivo
[35] = Half life in po dosed Sprague-Dawley rat; assay type: ADME, organism-based; settings: in vivo
[36] = Oral bioavailability in Sprague-Dawley rat; assay type: ADME, organism-based; settings: in vivo
[37] = target: Beta-adrenergic receptor kinase 1 (Homo sapiens) (UniProt P25098); assay: Inhibition of GRK2 at 10 uM
[38] = target: RAC-beta serine/threonine-protein kinase (Homo sapiens) (UniProt P31751); assay: Inhibition of AKT2 at 10 uM
[39] = target: AMP-activated protein kinase, AMPK (Homo sapiens) (UniProt P54646+O43741+P54619+Q9UGJ0+Q9Y478+Q13131+Q9UGI9); assay: Inhibition of AMPK alpha-2/beta-1/gamma-1 at 10 uM; assay type: protein-complex assay
[40] = target: Cytoplasmic tyrosine-protein kinase BMX (Homo sapiens) (UniProt P51813); assay: Inhibition of BMX at 10 uM
Cytoplasmic tyrosine-protein kinase BMX (Homo sapiens), sequence (P51813 whole entry): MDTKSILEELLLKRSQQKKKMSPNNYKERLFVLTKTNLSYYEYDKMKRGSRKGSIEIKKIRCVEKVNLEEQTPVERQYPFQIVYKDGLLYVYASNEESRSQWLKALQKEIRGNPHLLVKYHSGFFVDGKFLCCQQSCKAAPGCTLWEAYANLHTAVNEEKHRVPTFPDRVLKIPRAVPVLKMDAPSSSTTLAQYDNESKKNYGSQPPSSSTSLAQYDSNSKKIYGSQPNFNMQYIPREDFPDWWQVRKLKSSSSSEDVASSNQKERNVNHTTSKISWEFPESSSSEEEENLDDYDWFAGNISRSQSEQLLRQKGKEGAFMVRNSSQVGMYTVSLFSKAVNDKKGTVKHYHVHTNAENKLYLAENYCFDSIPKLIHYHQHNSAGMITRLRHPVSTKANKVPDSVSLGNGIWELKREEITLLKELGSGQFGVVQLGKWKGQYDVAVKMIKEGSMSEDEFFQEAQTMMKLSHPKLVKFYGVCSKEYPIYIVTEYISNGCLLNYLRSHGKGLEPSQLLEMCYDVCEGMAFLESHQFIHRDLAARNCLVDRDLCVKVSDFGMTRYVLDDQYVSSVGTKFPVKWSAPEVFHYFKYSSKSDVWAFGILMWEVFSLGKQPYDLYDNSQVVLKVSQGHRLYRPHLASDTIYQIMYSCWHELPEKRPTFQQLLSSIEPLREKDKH

[41] = target: Calcium/calmodulin-dependent protein kinase type II subunit beta (Homo sapiens) (UniProt Q13554); assay: Inhibition of CAMK2beta at 10 uM
Calcium/calmodulin-dependent protein kinase type II subunit beta (Homo sapiens), sequence (Q13554 whole entry): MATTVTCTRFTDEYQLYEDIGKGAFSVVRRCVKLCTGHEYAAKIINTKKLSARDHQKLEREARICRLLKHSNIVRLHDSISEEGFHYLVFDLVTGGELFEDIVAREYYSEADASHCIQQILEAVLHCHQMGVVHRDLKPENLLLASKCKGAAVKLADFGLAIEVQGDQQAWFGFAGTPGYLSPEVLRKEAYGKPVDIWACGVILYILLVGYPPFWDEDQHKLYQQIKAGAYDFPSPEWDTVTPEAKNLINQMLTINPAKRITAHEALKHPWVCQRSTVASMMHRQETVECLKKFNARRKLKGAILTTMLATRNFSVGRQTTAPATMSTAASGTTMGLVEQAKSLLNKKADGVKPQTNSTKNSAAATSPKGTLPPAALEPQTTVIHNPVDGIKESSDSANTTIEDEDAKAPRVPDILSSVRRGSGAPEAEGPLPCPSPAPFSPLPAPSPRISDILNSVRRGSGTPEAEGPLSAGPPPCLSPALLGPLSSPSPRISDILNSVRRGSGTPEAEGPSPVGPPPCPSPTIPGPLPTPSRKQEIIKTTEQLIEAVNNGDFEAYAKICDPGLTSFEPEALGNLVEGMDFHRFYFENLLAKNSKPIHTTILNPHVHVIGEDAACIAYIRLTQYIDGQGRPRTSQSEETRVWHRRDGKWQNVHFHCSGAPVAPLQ

[42] = target: Calcium/calmodulin-dependent protein kinase type IV (Homo sapiens) (UniProt Q16566); assay: Inhibition of CAMK4 at 10 uM
[43] = target: Cyclin-dependent kinase 5/CDK5 activator 1 (Homo sapiens) (UniProt Q00535+Q15078); assay: Inhibition of CDK5/p35 at 10 uM; assay type: protein-complex assay
[44] = target: Dual specificity protein kinase CLK1 (Homo sapiens) (UniProt P49759); assay: Inhibition of CLK1 at 10 uM
[45] = target: Epidermal growth factor receptor (Homo sapiens) (UniProt P00533); assay: Inhibition of EGFR at 10 uM
[46] = tested on: Epidermal growth factor receptor (Homo sapiens), P00533 [L858R]; assay: Inhibition of EGFR L858R (mutant) at 10 uM; assay type: protein assay
[47] = target: Ephrin type-A receptor 1 (Homo sapiens) (UniProt P21709); assay: Inhibition of EPHA1 at 10 uM
[48] = target: 3-phosphoinositide-dependent protein kinase 1 (Homo sapiens) (UniProt O15530); assay: Inhibition of PDK1 at 10 uM

Cc1cc(OCc2ccc(F)cc2F)c(Br)c(=O)n1Cc1ccc(CN(C)C)cc1
inhibition [1]: < 50%
inhibition [2]: < 50%
inhibition [3]: < 50%
inhibition [4]: < 50%
inhibition [5]: < 50%
inhibition [6]: < 50%
inhibition [7]: < 50%
inhibition [8]: < 50%
inhibition [9]: < 50%
inhibition [10]: < 50%
inhibition [11]: < 50%
inhibition [12]: < 50%
inhibition [13]: < 50%
inhibition [14]: < 50%
inhibition [15]: < 50%
inhibition [16]: < 50%
inhibition [17]: < 50%
inhibition [18]: < 50%
inhibition [19]: < 50%
inhibition [20]: < 50%
inhibition [21]: < 50%
inhibition [22]: < 50%
inhibition [23]: < 50%
inhibition [24]: < 50%
inhibition [25]: < 50%
inhibition [26]: < 50%
inhibition [27]: < 50%
inhibition [28]: < 50%
inhibition [29]: < 50%
inhibition [30]: < 50%
inhibition [31]: < 50%
inhibition [32]: < 50%
inhibition [33]: < 50%
CL/F [34]: 70 mL/min/kg
half-life [35]: 4.97 h
bioavailability [36]: 91%
inhibition [37]: < 50%
inhibition [38]: < 50%
inhibition [39]: < 50%
inhibition [40]: < 50%
inhibition [41]: < 50%
inhibition [42]: < 50%
inhibition [43]: < 50%
inhibition [44]: < 50%
inhibition [45]: < 50%
inhibition [46]: < 50%
inhibition [47]: < 50%
inhibition [48]: < 50%

From ChEMBL document CHEMBL1154277, “Discovery of N-substituted pyridinones as potent and selective inhibitors of p38 kinase” (Bioorg Med Chem Lett, 2009)
